Assay results from patent publication US20180244611A1, “Modulators of the Cystic Fibrosis Transmembrane Conductance Regulator Protein and Methods of Use” (AbbVie S.à.r.l., priority 2017, published 2018).

Tests used:
F508delCFTR [1] = molecular target: T1, F508delCFTR (Homo sapiens, UniProt P13569, DEL508-508); test: Cell Surface Expression-Horse Radish Peroxidase (CSE-HRP) assay, test compound without co-corrector; format: cell-based; conditions: for Emax: maximum at any tested concentration, normalized to positive control, without co-corrector; for EC50: test compound without co-corrector;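 for Emax: percent of on-plate 2 µM positive control corrector response over DMSO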
T1 construct: expressed in transfected cells; host or cells: CFBE41o- human lung-derived epithelial cells (CFBE41o-F508delCFTR-HRP), doxycycline-inducible
Method: (§1) Cell Surface Expression-Horse Radish Peroxidase (CSE-HRP) Assay
(§2) A cellular assay for measuring the F508delCFTR cell surface expression after correction with test compounds either without or with a co-corrector (2 μM of 3-[(2R,4R)-4-({[1-(2,2-difluoro-1,3-benzodioxol-5-yl)cyclopropyl]carbonyl}amino)-7-methoxy-3,4-dihydro-2H-chromen-2-yl]benzoic acid), was developed in human lung derived epithelial cell line (CFBE41o-) (Veit G et al, (2012) Mol Biol Cell. 23(21): 4188-4202). The development was achieved by expressing the F508delCFTR mutation along with a horseradish peroxidase (HRP) in the fourth exofacial loop, and then measuring the HRP activity using luminescence readout from these cells, CFBE41o-F508delCFTR-HRP, that were incubated overnight with the test corrector compounds, either without or with the co-corrector. For this primary assay, the CFBE41o-F508delCFTR-HRP cells were plated in 384-well plates (Greiner Bio-one; Cat 781080) at 4,000 cells/well along with 0.5 μg/mL doxycycline to induce the F508delCFTR-HRP expression and further incubated at 37° C., 5% CO2 for 72 hours. The test compounds were then added either without or with a co-corrector at the required concentrations and further incubated for 18-24 hours at 33° C. The highest concentration tested was 20 μM with an 8-point concentration response curve using a 3-fold dilution in both the test compound without or with the co-corrector. Three replicate plates were run to determine one EC50. All plates contained negative controls (dimethyl sulfoxide, DMSO) and positive control (2 μM of 3-[(2R,4R)-4-({[1-(2,2-difluoro-1,3-benzodioxol-5-yl)cyclopropyl]carbonyl}amino)-7-methoxy-3,4-dihydro-2H-chromen-2-yl]benzoic acid) as well as on-plate concentration response of the positive control. Post incubation, the plates were washed 5× times with Dulbecco's phosphate buffered saline (DPBS), followed by the addition of the HRP substrate, luminol (50 μL), and measuring the HRP activity using luminescence readout on EnVision® Multilabel Plate Reader (Perkin Elmer; product number 2104-0010). The raw counts from the experiment were analyzed using Accelrys® Assay Explorer v3.3.
(§3) Z′ greater than 0.5 was used as passing quality control criteria for the plates.
(§4) 1−[3*SDPositive Control+3*SDNegative Control/Absolute (MeanPositive Control−MeanNegative Control)]
(§5) wherein “SD” is standard deviation.
(§6) The % activity measured at each of the 8 test concentrations of the test compound added either without or with a co-corrector (2 μM of 3-[(2R,4R)-4-({[1-(2,2-difluoro-1,3-benzodioxol-5-yl)cyclopropyl]carbonyl}amino)-7-methoxy-3,4-dihydro-2H-chromen-2-yl]benzoic acid) was normalized to the on-plate positive control using the following formulae:
% activity (Test compound without co-corrector)=[(test compound without co-corrector response−DMSO response)/(positive control response−DMSO response)]*100%
(§7) The maximum % activity achieved for the test compound either without or with a co-corrector at any tested concentration is presented in Table 1 along with the respective EC50's calculated using the following general sigmoidal curve with variable Hill slope equation (described as Model 42 in the Accelrys® Assay Explorer v3.3 software):
(§8) General sigmoidal curve with concentration, response, top, bottom, EC50 and Hill slope. This model describes a sigmoidal curve with an adjustable baseline, a. The equation can be used to fit curves where response is either increasing or decreasing with respect to the independent variable, “x”.
“x” is a concentration of drug under test. “y” is the response. “a” is the maximum response, and “d” is the minimum response “c” is the inflection point (EC50) for the curve. That is, “y” is halfway between the lower and upper asymptotes when x=c. “b” is the slope-factor or Hill coefficient. The sign of b is positive when the response increases with increasing dose and is negative when the response decreases with increasing dose (inhibition). The data is presented with the qualifiers shown below: […]

F508delCFTR [2] = molecular target: T1, F508delCFTR; test: Cell Surface Expression-Horse Radish Peroxidase (CSE-HRP) assay, test compound with co-corrector; format: cell-based; conditions: with 2 μM co-corrector; for Maximum % activity (with co-corrector): maximum at any tested concentration, normalized to positive control;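 for Maximum % activity (with co-corrector): percent of 2 µM positive control corrector over DMSO; co-corrector is that same compound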
Method: as §1, §2, §3, §4, §5, §6
activity (Test compound with co-corrector)=[(test compound with co-corrector response−DMSO response)/(positive control response−DMSO response)]*100
as §7, §8
“x” is a concentration of drug under test. “y” is the response. “a” is the maximum response, and “d” is the minimum response “c” is the inflection point (EC50) for the curve. That is, “y” is halfway between the lower and upper asymptotes when x=c. “b” is the slope-factor or Hill coefficient. The sign of b is positive when the response increases with increasing dose and is negative when the response decreases with increasing dose (inhibition).

T1 sequence (P13569 with tags, fused parts or gaps DEL508-508): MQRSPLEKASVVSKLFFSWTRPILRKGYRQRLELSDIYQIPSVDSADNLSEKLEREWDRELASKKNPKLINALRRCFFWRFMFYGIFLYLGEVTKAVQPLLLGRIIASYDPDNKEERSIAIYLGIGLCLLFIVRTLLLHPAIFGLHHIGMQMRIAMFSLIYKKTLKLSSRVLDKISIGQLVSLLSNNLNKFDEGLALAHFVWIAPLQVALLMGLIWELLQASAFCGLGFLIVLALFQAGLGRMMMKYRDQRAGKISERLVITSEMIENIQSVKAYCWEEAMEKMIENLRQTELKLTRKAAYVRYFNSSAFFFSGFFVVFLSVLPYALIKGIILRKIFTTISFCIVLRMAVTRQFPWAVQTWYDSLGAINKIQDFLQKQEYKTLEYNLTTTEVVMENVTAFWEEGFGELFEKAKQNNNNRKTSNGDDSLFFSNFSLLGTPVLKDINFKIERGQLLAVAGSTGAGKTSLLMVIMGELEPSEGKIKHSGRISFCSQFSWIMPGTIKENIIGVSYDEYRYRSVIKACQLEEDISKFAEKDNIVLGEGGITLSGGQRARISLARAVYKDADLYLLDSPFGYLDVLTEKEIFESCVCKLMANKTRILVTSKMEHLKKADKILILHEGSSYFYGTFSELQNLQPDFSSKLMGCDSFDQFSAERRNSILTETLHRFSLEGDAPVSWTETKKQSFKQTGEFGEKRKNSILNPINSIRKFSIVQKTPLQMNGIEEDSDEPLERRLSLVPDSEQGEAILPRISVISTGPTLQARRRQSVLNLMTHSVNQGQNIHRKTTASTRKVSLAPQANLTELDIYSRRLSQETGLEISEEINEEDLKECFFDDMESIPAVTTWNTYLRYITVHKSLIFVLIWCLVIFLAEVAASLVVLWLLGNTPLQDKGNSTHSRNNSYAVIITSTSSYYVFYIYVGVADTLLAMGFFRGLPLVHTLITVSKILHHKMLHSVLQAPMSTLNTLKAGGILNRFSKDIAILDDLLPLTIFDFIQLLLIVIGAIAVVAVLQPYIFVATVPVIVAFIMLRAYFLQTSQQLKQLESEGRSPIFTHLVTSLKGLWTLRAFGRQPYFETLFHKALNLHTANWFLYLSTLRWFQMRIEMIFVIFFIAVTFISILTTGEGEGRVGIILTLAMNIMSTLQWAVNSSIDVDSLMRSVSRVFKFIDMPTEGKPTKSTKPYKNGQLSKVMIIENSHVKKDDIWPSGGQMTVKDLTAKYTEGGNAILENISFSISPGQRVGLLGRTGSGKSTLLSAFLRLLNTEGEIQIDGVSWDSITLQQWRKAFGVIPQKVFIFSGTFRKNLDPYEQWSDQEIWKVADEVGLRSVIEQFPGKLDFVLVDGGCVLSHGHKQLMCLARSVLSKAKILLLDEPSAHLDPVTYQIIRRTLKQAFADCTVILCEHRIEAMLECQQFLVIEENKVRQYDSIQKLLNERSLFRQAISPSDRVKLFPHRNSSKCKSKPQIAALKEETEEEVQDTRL

SMILES	Emax (F508delCFTR [1]) [%]	EC50 (F508delCFTR [1]) [µM]	Maximum % activity (with co-corrector) (F508delCFTR [2])	EC50 (F508delCFTR [2]) [µM]
COc1cccc2c1CCCC2(Cc1ccccc1)C(=O)NS(=O)(=O)c1cccc2ccccc12 (stereo not shown) [Example I-9, 1-benzyl-5-methoxy-N-(naphthalene-1-sulfonyl)-1,2,3,4-tetrahydronaphthalene-1-carboxamide]	≥ 150	< 3	+++ (≥350)	< 3
CCC1(C(=O)NS(=O)(=O)c2cccc3ccccc23)CCCc2c(OC)cccc21 (stereo not shown) [Example I-10, 1-ethyl-5-methoxy-N-(naphthalene-1-sulfonyl)-1,2,3,4-tetrahydronaphthalene-1-carboxamide]	≥ 150	3 to 10	+++ (≥350)	< 3
O=C(NS(=O)(=O)c1cccc2ccccc12)[C@@H]1CCCc2cccc(Cl)c21 [Example I-11, (1R)-8-chloro-N-(naphthalene-1-sulfonyl)-1,2,3,4-tetrahydronaphthalene-1-carboxamide]	≥ 150	< 3	+++ (≥350)	< 3
O=C(NS(=O)(=O)c1cccc2ccccc12)[C@H]1CCCc2cccc(Cl)c21 [Example I-12, (1S)-8-chloro-N-(naphthalene-1-sulfonyl)-1,2,3,4-tetrahydronaphthalene-1-carboxamide]	≥ 150	3 to 10	+++ (≥350)	< 3
CCC1(C(=O)NS(=O)(=O)c2cccc3c2OC(F)(F)O3)CCc2c(Cl)cccc21 (stereo not shown) [Example I-13, 4-chloro-N-(2,2-difluoro-2H-1,3-benzodioxole-4-sulfonyl)-1-ethyl-2,3-dihydro-1H-indene-1-carboxamide]	< 50	≥ 10	++ (≥150 and <350)	< 3
CC1(C(=O)NS(=O)(=O)c2cccc3ccccc23)CCc2cccc(Cl)c21 (stereo not shown) [Example I-14, 7-chloro-1-methyl-N-(naphthalene-1-sulfonyl)-2,3-dihydro-1H-indene-1-carboxamide]	≥ 150	< 3	+++ (≥350)	< 3
COc1ccc(Br)c2c1CCCC2C(=O)NS(=O)(=O)c1cccc2ccccc12 (stereo not shown) [Example I-15, 8-bromo-5-methoxy-N-(naphthalene-1-sulfonyl)-1,2,3,4-tetrahydronaphthalene-1-carboxamide]	≥ 150	< 3	+++ (≥350)	< 3
O=C(NS(=O)(=O)c1cccc2ccccc12)C1(CCN2CCC(F)(F)C2)CCc2c(Cl)cccc21 (stereo not shown) [Example I-16, 4-chloro-1-[2-(3,3-difluoropyrrolidin-1-yl)ethyl]-N-(naphthalene-1-sulfonyl)-2,3-dihydro-1H-indene-1-carboxamide]	50 to 150	< 3	+++ (≥350)	< 3
CC[C@]1(C(=O)NS(=O)(=O)c2cccc3ccccc23)CCc2c(Cl)cccc21 [Example I-17, (1S)-4-chloro-1-ethyl-N-(naphthalene-1-sulfonyl)-2,3-dihydro-1H-indene-1-carboxamide]	50 to 150	< 3	+++ (≥350)	< 3
CC[C@@]1(C(=O)NS(=O)(=O)c2cccc3ccccc23)CCc2c(Cl)cccc21 [Example I-18, (1R)-4-chloro-1-ethyl-N-(naphthalene-1-sulfonyl)-2,3-dihydro-1H-indene-1-carboxamide]	≥ 150	< 3	+++ (≥350)	< 3
COc1ccc(Br)c2c1C(C(=O)NS(=O)(=O)c1cccc3ccccc13)CC2 (stereo not shown) [Example I-19, 4-bromo-7-methoxy-N-(naphthalene-1-sulfonyl)-2,3-dihydro-1H-indene-1-carboxamide]	≥ 150	3 to 10	+++ (≥350)	< 3
C[C@]1(C(=O)NS(=O)(=O)c2cccc3ccccc23)CCc2c1ccc1c2OCO1 [Example I-20, (6S)-6-methyl-N-(naphthalene-1-sulfonyl)-7,8-dihydro-2H,6H-indeno[4,5-d][1,3]dioxole-6-carboxamide]	≥ 150	3 to 10	+++ (≥350)	3 to 10
C[C@@]1(C(=O)NS(=O)(=O)c2cccc3ccccc23)CCc2c1ccc1c2OCO1 [Example I-21, (6R)-6-methyl-N-(naphthalene-1-sulfonyl)-7,8-dihydro-2H,6H-indeno[4,5-d][1,3]dioxole-6-carboxamide]	≥ 150	3 to 10	+++ (≥350)	3 to 10
COc1ccc2c(c1)[C@@](C)(C(=O)NS(=O)(=O)c1cccc3ccccc13)CC2 [Example I-22, (1S)-6-methoxy-1-methyl-N-(naphthalene-1-sulfonyl)-2,3-dihydro-1H-indene-1-carboxamide]	≥ 150	3 to 10	+++ (≥350)	< 3
COc1ccc2c(c1)[C@](C)(C(=O)NS(=O)(=O)c1cccc3ccccc13)CC2 [Example I-23, (1R)-6-methoxy-1-methyl-N-(naphthalene-1-sulfonyl)-2,3-dihydro-1H-indene-1-carboxamide]	≥ 150	3 to 10	+++ (≥350)	< 3
O=C(NS(=O)(=O)c1cccc2ccccc12)C1CCCc2c1ccc1c2OCO1 (stereo not shown) [Example I-24, N-(naphthalene-1-sulfonyl)-6,7,8,9-tetrahydro-2H-naphtho[1,2-d][1,3]dioxole-6-carboxamide]	≥ 150	3 to 10	+++ (≥350)	< 3
C[C@@]1(C(=O)NS(=O)(=O)c2cccc3ccccc23)CCc2cccc(Cl)c21 [Example I-27, (1R)-7-chloro-1-methyl-N-(naphthalene-1-sulfonyl)-2,3-dihydro-1H-indene-1-carboxamide]	≥ 150	< 3	+++ (≥350)	< 3
CCC1(C(=O)NS(=O)(=O)c2cccc3ccccc23)CCc2c(Br)ccc(OC)c21 (stereo not shown) [Example I-28, 4-bromo-1-ethyl-7-methoxy-N-(naphthalene-1-sulfonyl)-2,3-dihydro-1H-indene-1-carboxamide]	≥ 150	< 3	+++ (≥350)	< 3
O=C(NS(=O)(=O)c1cccc2ccccc12)C1(CC2CC2)CCc2c(Cl)cccc21 (stereo not shown) [Example I-29, 4-chloro-1-(cyclopropylmethyl)-N-(naphthalene-1-sulfonyl)-2,3-dihydro-1H-indene-1-carboxamide]	≥ 150	< 3	+++ (≥350)	< 3
